Source: the NIST ThermoML archive (doi:10.1021/je900874z)

Key:
[1] = xn = mol fraction of the nth substance listed; conditions: 101 kPa, Liquid
[2] = 101.33 kPa, Liquid; for speed of sound: Pulse-echo method

Nc1ccccc1 [aniline] + CC(C)=O
[1]
Conditions	mass density [kg/m3]
293.15 K, x2 = 0.0522	1013.71
293.15 K, x2 = 0.1078	1004.97
293.15 K, x2 = 0.1567	996.941
293.15 K, x2 = 0.2074	988.429
293.15 K, x2 = 0.249	981.269
293.15 K, x2 = 0.3016	971.707
293.15 K, x2 = 0.3454	963.326
293.15 K, x2 = 0.3832	955.799
293.15 K, x2 = 0.4313	946.013
293.15 K, x2 = 0.4908	933.416
293.15 K, x2 = 0.5497	920.272
293.15 K, x2 = 0.583	912.529
293.15 K, x2 = 0.6446	897.535
293.15 K, x2 = 0.6911	885.684
293.15 K, x2 = 0.7465	870.629
293.15 K, x2 = 0.8046	854.022
293.15 K, x2 = 0.8497	840.545
293.15 K, x2 = 0.9045	823.238
293.15 K, x2 = 0.9475	809.118
298.15 K, x2 = 0.0569	1008.67
298.15 K, x2 = 0.1088	1000.44
298.15 K, x2 = 0.1539	993.118
298.15 K, x2 = 0.1978	985.694
298.15 K, x2 = 0.2484	976.895
298.15 K, x2 = 0.3039	966.77
298.15 K, x2 = 0.3505	957.976
298.15 K, x2 = 0.4114	945.773
298.15 K, x2 = 0.4585	935.933
298.15 K, x2 = 0.5035	926.122
298.15 K, x2 = 0.5501	915.531
298.15 K, x2 = 0.5922	905.703
298.15 K, x2 = 0.6499	891.425
298.15 K, x2 = 0.6993	878.643
298.15 K, x2 = 0.7522	864.125
298.15 K, x2 = 0.8082	848.052
298.15 K, x2 = 0.8533	834.272
298.15 K, x2 = 0.8951	821.048
298.15 K, x2 = 0.9545	801.258
303.15 K, x2 = 0.0515	1005.02
303.15 K, x2 = 0.1002	997.272
303.15 K, x2 = 0.1475	989.506
303.15 K, x2 = 0.1926	981.799
303.15 K, x2 = 0.2399	973.527
303.15 K, x2 = 0.3024	962.003
303.15 K, x2 = 0.3475	953.088
303.15 K, x2 = 0.3947	943.989
303.15 K, x2 = 0.4503	932.55
303.15 K, x2 = 0.4979	922.075
303.15 K, x2 = 0.5502	910.191
303.15 K, x2 = 0.6037	897.422
303.15 K, x2 = 0.6464	886.697
303.15 K, x2 = 0.6975	873.362
303.15 K, x2 = 0.7548	857.721
303.15 K, x2 = 0.8078	842.147
303.15 K, x2 = 0.8567	827.148
303.15 K, x2 = 0.9014	812.779
303.15 K, x2 = 0.9494	796.575

c1ccncc1 [pyridine]
[2]
Conditions	mass density [kg/m3]	speed of sound [m/s]
293.15 K	983.053	1436.7
298.15 K	978.05	1416.7
303.15 K	972.98	1396.6

c1ccncc1 [pyridine] + CC(C)=O
[1]
Conditions	mass density [kg/m3]
293.15 K, x2 = 0.0577	973.393
293.15 K, x2 = 0.1007	966.028
293.15 K, x2 = 0.1536	956.946
293.15 K, x2 = 0.2043	948.163
293.15 K, x2 = 0.2219	945.011
293.15 K, x2 = 0.2968	931.713
293.15 K, x2 = 0.3537	921.354
293.15 K, x2 = 0.4051	911.899
293.15 K, x2 = 0.5191	890.383
293.15 K, x2 = 0.5519	884.082
293.15 K, x2 = 0.5969	875.296
293.15 K, x2 = 0.6425	866.297
293.15 K, x2 = 0.703	854.168
293.15 K, x2 = 0.7504	844.514
293.15 K, x2 = 0.8066	832.904
293.15 K, x2 = 0.8569	822.218
293.15 K, x2 = 0.9019	812.518
293.15 K, x2 = 0.9456	803.006
298.15 K, x2 = 0.0514	969.365
298.15 K, x2 = 0.0969	961.623
298.15 K, x2 = 0.1486	952.705
298.15 K, x2 = 0.2023	943.375
298.15 K, x2 = 0.2444	935.93
298.15 K, x2 = 0.296	926.692
298.15 K, x2 = 0.3544	916.021
298.15 K, x2 = 0.3965	908.33
298.15 K, x2 = 0.4516	898.006
298.15 K, x2 = 0.5036	888.119
298.15 K, x2 = 0.594	870.616
298.15 K, x2 = 0.6454	860.492
298.15 K, x2 = 0.6971	850.007
298.15 K, x2 = 0.7518	838.783
298.15 K, x2 = 0.8049	827.707
298.15 K, x2 = 0.8456	819.096
298.15 K, x2 = 0.8955	808.385
298.15 K, x2 = 0.9456	797.415
303.15 K, x2 = 0.0493	964.637
303.15 K, x2 = 0.0954	956.714
303.15 K, x2 = 0.1463	947.874
303.15 K, x2 = 0.1983	938.736
303.15 K, x2 = 0.2424	930.863
303.15 K, x2 = 0.2929	921.779
303.15 K, x2 = 0.3522	910.875
303.15 K, x2 = 0.4048	901.126
303.15 K, x2 = 0.4497	892.629
303.15 K, x2 = 0.497	883.593
303.15 K, x2 = 0.5412	875.069
303.15 K, x2 = 0.5965	864.243
303.15 K, x2 = 0.6594	851.677
303.15 K, x2 = 0.6912	845.142
303.15 K, x2 = 0.7491	833.115
303.15 K, x2 = 0.8475	812.305
303.15 K, x2 = 0.8946	802.071
303.15 K, x2 = 0.9443	791.125
